Assay [1] concerns hepatoma cell line HCCLM3. In kind it is cell-based. How it is done: (§1) The hepatoma cell line BEL7404 (purchased from The Chinese Academy of Sciences cell bank) was a cell line with high expression of YAP protein; HCCLM3 (purchased from The Chinese Academy of Sciences cell bank) was a cell line with low expression of YAP protein. The hepatoma cell lines (BEL7404 or HCCLM3) were inoculated into a 96-well plate at the concentration of 2000 cells/well, and incubated overnight in RPMI1640 containing 1% bovine serum at 37° C. The hepatoma cell lines were treated with polypeptides having different concentrations at 37° C. for 72 h.
(§2) Moreover, IC50 values of the cells in 1.1 were determined using CCK-8 kit.
(§3) The polypeptide represented by SEQ ID NO.:1 was further modified. The IC50 values of the polypeptides at a concentration of 1% in cell cultivating for 72 h were measured.

Assay [2] relates to hepatoma cell line BEL7404. In kind it is cell-based. As to conditions: for YAP inhibitory activity: summary of Table 8 in words. How it is done:
as §1, §2, §3

Setting [3] is: Table 8, at a concentration of 1% in cell cultivating for 72 h, unit inferred, read-out: IC50 HCCLM3.
The mark [4] stands for this setting: Table 8, at a concentration of 1% in cell cultivating for 72 h, unit inferred, read-out: IC50 BEL7404.

Where two headings read alike, the source gives them in different places. Where a SMILES comes first, the peptide text is derived from it. Bridges are numbered along the chain shown (N, C = ends). [ ]: non-standard residue; d: D form. Phe(3-Cl) = N[C@@H](Cc1cccc(Cl)c1)C(=O)O; hCys = N[C@@H](CCS)C(=O)O; Nle = CCCC[C@H](N)C(=O)O

For `CCCC[C@@H]1NC(=O)[C@H](CCCCN)NC(=O)[C@H](CCCCN)NC(=O)[C@H](CC(C)C)NC(=O)[C@@H](NC(=O)[C@H](Cc2cccc(Cl)c2)NC(=O)[C@@H]2CCCN2C(=O)[C@@H](N)C(C)C)CCSSC[C@@H](C(=O)N[C@@H](CCCCN)C(=O)N2CCC[C@H]2C(=O)N2CCC[C@H]2C(=O)N[C@@H](CCCNC(=N)N)C(=O)N[C@@H](CCCNC(=N)N)C(=O)N[C@@H](CCSC)C(=O)N[C@@H](CCCCN)C(=O)N[C@@H](Cc2c[nH]c3ccccc23)C(=O)N[C@@H](CCCCN)C(=O)N[C@@H](CCCCN)C(=O)O)NC(=O)[C@H](Cc2ccccc2)NC(=O)[C@H](CO)NC(=O)[C@H](CC(=O)O)NC(=O)[C@@H]2CCCN2C1=O` [compound 27] (H-VP[Phe(3-Cl)][hCys]LKK[Nle]PDSFCKPPRRMKWKK-OH; disulfide 4-13), the results for the IC50 in assay [1] (setting [3]) and in assay [2] (setting [4]) were less than 1000 µM and 60.2 ± 15.2 µM, respectively. `CCCC[C@@H]1NC(=O)[C@H](CCCCN)NC(=O)[C@H](CCCCN)NC(=O)[C@H](CC(C)C)NC(=O)[C@@H](NC(=O)[C@H](Cc2cccc(Cl)c2)NC(=O)[C@@H]2CCCN2C(=O)[C@@H](N)C(C)C)CCSSC[C@@H](C(=O)N[C@@H](CCCCN)C(=O)N2CCC[C@H]2C(=O)N2CCC[C@H]2C(=O)N[C@@H](CCCNC(=N)N)C(=O)N[C@@H](CCCNC(=N)N)C(=O)N[C@@H](CCSC)C(=O)N[C@@H](CCCCN)C(=O)N[C@@H](Cc2c[nH]c3ccccc23)C(=O)N[C@@H](CCCCN)C(=O)N[C@@H](CCCCN)C(=O)O)NC(=O)[C@H](Cc2ccccc2)NC(=O)[C@H](CO)NC(=O)[C@H](C)NC(=O)[C@@H]2CCCN2C1=O` [compound 23] (H-VP[Phe(3-Cl)][hCys]LKK[Nle]PASFCKPPRRMKWKK-OH; disulfide 4-13): the concentration for half-maximal inhibition (IC50) in assay [1] (setting [3]) is 129 ± 26.4 µM; in assay [2] (setting [4]), 37.2 ± 1 µM. For `CCCC[C@@H]1NC(=O)[C@H](CCCCN)NC(=O)[C@H](CCCCN)NC(=O)[C@H](CC(C)C)NC(=O)[C@@H](NC(=O)[C@H](Cc2cccc(Cl)c2)NC(=O)[C@@H]2CCCN2C(=O)[C@H](C)N)CCSSC[C@@H](C(=O)N[C@@H](CCCCN)C(=O)N2CCC[C@H]2C(=O)N2CCC[C@H]2C(=O)N[C@@H](CCCNC(=N)N)C(=O)N[C@@H](CCCNC(=N)N)C(=O)N[C@@H](CCSC)C(=O)N[C@@H](CCCCN)C(=O)N[C@@H](Cc2c[nH]c3ccccc23)C(=O)N[C@@H](CCCCN)C(=O)N[C@@H](CCCCN)C(=O)O)NC(=O)[C@H](Cc2ccccc2)NC(=O)[C@H](CO)NC(=O)[C@H](CC(=O)O)NC(=O)[C@@H]2CCCN2C1=O` [compound 25] (H-AP[Phe(3-Cl)][hCys]LKK[Nle]PDSFCKPPRRMKWKK-OH; disulfide 4-13), the IC50 in assay [1] (setting [3]) is greater than 1000 µM; in assay [2] (setting [4]) it was 119 ± 7.1 µM. Regarding `CCCC[C@@H]1NC(=O)[C@@H](NC(=O)[C@H](Cc2cccc(Cl)c2)NC(=O)[C@@H]2CCCN2C(=O)[C@@H](N)C(C)C)CCSSC[C@@H](C(=O)N[C@@H](CCCCN)C(=O)N2CCC[C@H]2C(=O)N2CCC[C@H]2C(=O)N[C@@H](CCCNC(=N)N)C(=O)N[C@@H](CCCNC(=N)N)C(=O)N[C@@H](CCSC)C(=O)N[C@@H](CCCCN)C(=O)N[C@@H](Cc2c[nH]c3ccccc23)C(=O)N[C@@H](CCCCN)C(=O)N[C@@H](CCCCN)C(=O)O)NC(=O)[C@H](Cc2ccccc2)NC(=O)[C@H](CO)NC(=O)[C@H](CC(=O)O)NC(=O)[C@@H]2CCCN2C(=O)[C@H](CCCC)NC(=O)[C@H](CCCCN)NC(=O)[C@H](CCCCN)NC1=O` [compound 28] (H-VP[Phe(3-Cl)][hCys][Nle]KK[Nle]PDSFCKPPRRMKWKK-OH; disulfide 4-13), the IC50 worked out at 198 ± 19.6 µM in assay [1] (setting [3]) and 55.4 ± 6.3 µM in assay [2] (setting [4]). With “VP(3-Cl)F-LKK-Hcy-Nle-PASFKPPC RRMKWKK [SEQ ID NO.: 33]”, the YAP inhibitory activity result in assay [2] is on record as “best inhibitory activity”. In the case of `CCCC[C@@H]1NC(=O)[C@H](CCCCN)NC(=O)[C@H](CCCNC(=N)N)NC(=O)[C@H](CC(C)C)NC(=O)[C@@H](NC(=O)[C@H](Cc2cccc(Cl)c2)NC(=O)[C@@H]2CCCN2C(=O)[C@@H](N)C(C)C)CCSSC[C@@H](C(=O)N[C@@H](CCCCN)C(=O)N2CCC[C@H]2C(=O)N2CCC[C@H]2C(=O)N[C@@H](CCCNC(=N)N)C(=O)N[C@@H](CCCNC(=N)N)C(=O)N[C@@H](CCSC)C(=O)N[C@@H](CCCCN)C(=O)N[C@@H](Cc2c[nH]c3ccccc23)C(=O)N[C@@H](CCCCN)C(=O)N[C@@H](CCCCN)C(=O)O)NC(=O)[C@H](Cc2ccccc2)NC(=O)[C@H](CO)NC(=O)[C@H](C)NC(=O)[C@@H]2CCCN2C1=O` [compound 21] (H-VP[Phe(3-Cl)][hCys]LRK[Nle]PASFCKPPRRMKWKK-OH; disulfide 4-13), the IC50 in assay [1] (setting [3]) came out at 196 ± 16.3 µM; in assay [2] (setting [4]) it was 28.6 ± 2.9 µM. For `CSCC[C@H](NC(=O)[C@H](CCCNC(=N)N)NC(=O)[C@@H](N)CCCNC(=N)N)C(=O)N[C@@H](CCCCN)C(=O)N[C@@H](Cc1c[nH]c2ccccc12)C(=O)N[C@@H](CCCCN)C(=O)N[C@@H](CCCCN)C(=O)N1CCC[C@H]1C(=O)N[C@@H](CCC(N)=O)C(=O)NCC(=O)N[C@@H](CCC(N)=O)C(=O)NCC(=O)N1CCC[C@H]1C(=O)N1CCC[C@H]1C(=O)N[C@@H](CO)C(=O)NCC(=O)N1CCC[C@H]1C(=O)NCC(=O)N[C@@H](CCC(N)=O)C(=O)N1CCC[C@H]1C(=O)N[C@@H](C)C(=O)N1CCC[C@H]1C(=O)N[C@@H](C)C(=O)O` [SEQ ID NO.: 16], the IC50 in assay [1] (72 h) was greater than 1000 µM; in assay [2] (72 h), 242 ± 27.2 µM. For the molecule “VP(3-Cl)F-Hcy-LKK-Nle-PASFCKPP RRMKWKK [SEQ ID NO.: 23]”, the YAP inhibitory activity result in assay [2] was “best inhibitory activity”. Regarding `CCCC[C@@H]1NC(=O)[C@H](CCCCN)NC(=O)[C@H](CCCNC(=N)N)NC(=O)[C@H](CC(C)C)NC(=O)[C@@H](NC(=O)[C@H](Cc2cccc(Cl)c2)NC(=O)[C@@H]2CCCN2C(=O)[C@@H](N)C(C)C)CCSSC[C@@H](C(=O)N[C@@H](CCCCN)C(=O)N2CCC[C@H]2C(=O)N2CCC[C@H]2C(=O)N[C@@H](CCCNC(=N)N)C(=O)N[C@@H](CCCNC(=N)N)C(=O)N[C@@H](CCSC)C(=O)N[C@@H](CCCCN)C(=O)N[C@@H](Cc2c[nH]c3ccccc23)C(=O)N[C@@H](CCCCN)C(=O)N[C@@H](CCCCN)C(=O)O)NC(=O)[C@H](Cc2ccccc2)NC(=O)[C@H](CO)NC(=O)[C@H](CCC(=O)O)NC(=O)[C@@H]2CCCN2C1=O` [compound 22] (H-VP[Phe(3-Cl)][hCys]LRK[Nle]PESFCKPPRRMKWKK-OH; disulfide 4-13), the values for the half-inhibitory concentration (IC50) in assay [1] (setting [3]) and in assay [2] (setting [4]) were 181 ± 21.7 µM and 67.9 ± 6.4 µM, respectively. Consider “VP(3-Cl)F-Hcy-LRK-Nle-PASFCKPP RRMKWKK [SEQ ID NO.: 21]”, for which the YAP inhibitory activity entry in assay [2] was “best inhibitory activity”. Regarding `CCCC[C@@H]1NC(=O)[C@@H](NC(=O)[C@H](Cc2cccc(Cl)c2)NC(=O)[C@@H]2CCCN2C(=O)[C@H](C)N)CCSSC[C@@H](C(=O)N[C@@H](CCCCN)C(=O)N2CCC[C@H]2C(=O)N2CCC[C@H]2C(=O)N[C@@H](CCCNC(=N)N)C(=O)N[C@@H](CCCNC(=N)N)C(=O)N[C@@H](CCSC)C(=O)N[C@@H](CCCCN)C(=O)N[C@@H](Cc2c[nH]c3ccccc23)C(=O)N[C@@H](CCCCN)C(=O)N[C@@H](CCCCN)C(=O)O)NC(=O)[C@H](Cc2ccccc2)NC(=O)[C@H](CO)NC(=O)[C@H](CC(=O)O)NC(=O)[C@@H]2CCCN2C(=O)[C@H](CCCC)NC(=O)[C@H](CCCCN)NC(=O)[C@H](CCCCN)NC1=O` [compound 26] (H-AP[Phe(3-Cl)][hCys][Nle]KK[Nle]PDSFCKPPRRMKWKK-OH; disulfide 4-13), the figures for the IC50 in assay [1] (setting [3]) and in assay [2] (setting [4]) were greater than 1000 µM and 62.7 ± 5.9 µM, respectively. `CSCC[C@H](NC(=O)[C@H](CCCNC(=N)N)NC(=O)[C@@H](N)CCCNC(=N)N)C(=O)N[C@@H](CCCCN)C(=O)N[C@@H](Cc1c[nH]c2ccccc12)C(=O)N[C@@H](CCCCN)C(=O)N[C@@H](CCCCN)C(=O)N[C@H](C(=O)N[C@@H](C)C(=O)NCC(=O)N[C@@H](C)C(=O)N[C@@H](CC(C)C)C(=O)N[C@H](C(=O)N1CCC[C@H]1C(=O)N[C@@H](CCC(N)=O)C(=O)N[C@@H](Cc1c[nH]cn1)C(=O)N[C@H](C(=O)N[C@@H](CCCNC(=N)N)C(=O)N[C@@H](C)C(=O)N[C@@H](Cc1c[nH]cn1)C(=O)N[C@@H](CO)C(=O)N[C@@H](CO)C(=O)N1CCC[C@H]1C(=O)O)C(C)C)[C@@H](C)O)[C@@H](C)O` [SEQ ID NO.: 18]: the IC50 in assay [1] (72 h) is greater than 1000 µM; in assay [2] (72 h) it was 816 ± 14.4 µM. Regarding `CCCC[C@@H]1NC(=O)[C@H](CCCNC(=N)N)NC(=O)[C@H](CCCCN)NC(=O)[C@H](CC(C)C)NC(=O)[C@@H](NC(=O)[C@H](Cc2cccc(Cl)c2)NC(=O)[C@@H]2CCCN2C(=O)[C@@H](N)C(C)C)CCSSC[C@@H](C(=O)N[C@@H](CCCCN)C(=O)N2CCC[C@H]2C(=O)N2CCC[C@H]2C(=O)N[C@@H](CCCNC(=N)N)C(=O)N[C@@H](CCCNC(=N)N)C(=O)N[C@@H](CCSC)C(=O)N[C@@H](CCCCN)C(=O)N[C@@H](Cc2c[nH]c3ccccc23)C(=O)N[C@@H](CCCCN)C(=O)N[C@@H](CCCCN)C(=O)O)NC(=O)[C@H](Cc2ccccc2)NC(=O)[C@H](CO)NC(=O)[C@H](C)NC(=O)[C@@H]2CCCN2C1=O` [compound 24] (H-VP[Phe(3-Cl)][hCys]LKR[Nle]PASFCKPPRRMKWKK-OH; disulfide 4-13), the IC50 in assay [1] (setting [3]) was 67.3 ± 38.5 µM; in assay [2] (setting [4]), 25.7 ± 3 µM.

On to “VP-Hcy-(3-Cl)F-LKK-Nle-PASCFKPP RRMKWKK [SEQ ID NO.: 31]”, for which the YAP inhibitory activity result in assay [2] is “best inhibitory activity”.

Broadly, the IC50 is the concentration that inhibits the measured activity by half.

The values are drawn from patent publication US10526385B2, “YAP protein inhibiting polypeptide and application thereof” (BAO KANG BIOMEDICAL HEALTHCARE INC, priority 2013, dated 2020).
